According to patent US8163755B2, “Hexahydrooxazinopterine compounds” (Takeda Pharmaceutical Company Limited, priority 2009, dated 2012):
pIC50: −log10 of the molar value. Structures can show the parent of a compound that is named as a salt.

Target: T1, human mTOR (Homo sapiens, UniProt P42345)
T1 construct: purchased Invitrogen
Assay: Inhibition of mTOR (Example A, LanthaScreen TR-FRET, GFP-4E-BP1 substrate)
Type: biochemical
Conditions: inhibition of human mTOR in the assay of Example A
Procedure: Example A Inhibition of mTOR
Purified mTOR are purchased from Invitrogen. mTOR activity was determined using Invitrogen's LanthaScreen system. The inhibitory properties of compounds relative to mTOR may be determined using a black 384-well-plate format in the following buffer 50 mM Hepes, 10 mM NaCl, 10 mM MgCl2, 0.2 mM EDTA, 0.01% Brij35, 2 mM DTT at pH7.3. The test compound is prepared in DMSO using 2 fold serial dilutions for 11 data points which are added to the buffer so that each dilution contains 3% DMSO.
An Assay for mTOR Inhibition is as Follows:
Combine in each well 2 μl of 1.2 μM GFP-4E-BP1 (Invitrogen) and 150 μM ATP (in buffer), 2 μl of diluted test compound (3% DMSO in buffer), and 2 μl of 6 nM mTor in buffer. The reaction mixture is then incubated at room temperature for 30 min, and quenched by adding 40 mM ETDA with 4 nM Tb-anti-p4E-BP1 [pThr46] antibody in TR-FRET dilution buffer (Invitrogen). The plate is kept at room temperature for 1 hour and then read using PheraStar (BMG labtech) LanthaScreen mode.
pIC50 values, the negative of the log of the IC50, are calculated by non-linear curve fitting of the compound concentrations and percent of inhibition to the standard pIC50 equation.

CNC(=O)Nc1ccc(-c2ncc3c(n2)N2CCOCC2(C)C(=O)N3CC2CC2)cc1 (centres unmarked) [Example 1, 1-(4-(5-(cyclopropylmethyl)-6a-methyl-6-oxo-5,6,6a,7,9,10-hexahydro-[1,4]oxazino[3,4-h]pteridin-2-yl)phenyl)-3-methylurea]
pIC50: > 7.50

CNC(=O)Nc1ccc(-c2ncc3c(n2)N2CCOC[C@]2(C)C(=O)N3CC2CC2)cc1 [Example 3, (R)-1-(4-(5-(cyclopropylmethyl)-6a-methyl-6-oxo-5,6,6a,7,9,10-hexahydro-[1,4]oxazino[3,4-h]pteridin-2-yl)phenyl)-3-methylurea]
pIC50: > 7.50

CNC(=O)Nc1ccc(-c2ncc3c(n2)N2CCOC[C@@]2(C)C(=O)N3CC2CC2)cc1 [Example 4, (S)-1-(4-(5-(cyclopropylmethyl)-6a-methyl-6-oxo-5,6,6a,7,9,10-hexahydro-[1,4]oxazino[3,4-h]pteridin-2-yl)phenyl)-3-methylurea]
pIC50: 6.00 to 7.50

CCNC(=O)Nc1ccc(-c2ncc3c(n2)N2CCOCC2(C)C(=O)N3CC2CC2)cc1 (centres unmarked) [Example 5, 1-(4-(5-(cyclopropylmethyl)-6a-methyl-6-oxo-5,6,6a,7,9,10-hexahydro-[1,4]oxazino[3,4-h]pteridin-2-yl)phenyl)-3-ethylurea, TFA salt]
pIC50: > 7.50

CC12COCCN1c1nc(-c3ccc(NC(=O)NC4CC4)cc3)ncc1N(CC1CC1)C2=O (centres unmarked) [Example 6, 1-cyclopropyl-3-(4-(5-(cyclopropylmethyl)-6a-methyl-6-oxo-5,6,6a,7,9,10-hexahydro-[1,4]oxazino[3,4-h]pteridin-2-yl)phenyl)urea, TFA salt]
pIC50: 6.00 to 7.50

CCNC(=O)Nc1ccc(-c2ncc3c(n2)N2CCOC[C@@]2(C)C(=O)N3CC2CC2)cc1 [Example 7, (S)-1-(4-(5-(cyclopropylmethyl)-6a-methyl-6-oxo-5,6,6a,7,9,10-hexahydro-[1,4]oxazino[3,4-h]pteridin-2-yl)phenyl)-3-ethylurea]
pIC50: > 7.50

C[C@@]12COCCN1c1nc(-c3ccc(NC(=O)NC4CC4)cc3)ncc1N(CC1CC1)C2=O [Example 9, (S)-1-cyclopropyl-3-(4-(5-(cyclopropylmethyl)-6a-methyl-6-oxo-5,6,6a,7,9,10-hexahydro-[1,4]oxazino[3,4-h]pteridin-2-yl)phenyl)urea]
pIC50: > 7.50

CNC(=O)Nc1ccc(-c2ncc3c(n2)N2CCOCC2(C)C(=O)N3Cc2ccn(C)n2)cc1 (centres unmarked) [Example 11, 1-methyl-3-(4-(6a-methyl-5-((1-methyl-1H-pyrazol-3-yl)methyl)-6-oxo-5,6,6a,7,9,10-hexahydro-[1,4]oxazino[3,4-h]pteridin-2-yl)phenyl)urea]
pIC50: 6.00 to 7.50

CNC(=O)Nc1ccc(-c2nc(N3CCOCC3)c3c(n2)N2CCOCC2(C)C(=O)N3C)cc1 (centres unmarked) [Example 14, 1-(4-(5,6a-dimethyl-4-morpholino-6-oxo-5,6,6a,7,9,10-hexahydro-[1,4]oxazino[3,4-h]pteridin-2-yl)phenyl)-3-methylurea]
pIC50: 6.00 to 7.50

CNC(=O)Nc1ccc(-c2ncc3c(n2)N2CCOCC2(C)C(=O)N3C(C)C)cc1 (centres unmarked) [Example 15, 1-(4-(5-isopropyl-6a-methyl-6-oxo-5,6,6a,7,9,10-hexahydro-[1,4]oxazino[3,4-h]pteridin-2-yl)phenyl)-3-methylurea]
pIC50: > 7.50

CNC(=O)Nc1ccc(-c2ncc3c(n2)N2CCOCC2(C)C(=O)N3CC2CCC2)cc1 (centres unmarked) [Example 16, 1-(4-(5-(cyclobutylmethyl)-6a-methyl-6-oxo-5,6,6a,7,9,10-hexahydro-[1,4]oxazino[3,4-h]pteridin-2-yl)phenyl)-3-methylurea]
pIC50: > 7.50

CNC(=O)Nc1ccc(-c2ncc3c(n2)N2CCOCC2(C)C(=O)N3C2CC2)cc1 (centres unmarked) [Example 17, 1-(4-(5-cyclopropyl-6a-methyl-6-oxo-5,6,6a,7,9,10-hexahydro-[1,4]oxazino[3,4-h]pteridin-2-yl)phenyl)-3-methylurea]
pIC50: 6.00 to 7.50

CNC(=O)Nc1ccc(-c2ncc3c(n2)N2CCO[C@@H](C)[C@@]2(C)C(=O)N3CC2CC2)cc1 [Example 18, 1-(4-((6aS,7S)-5-(cyclopropylmethyl)-6a,7-dimethyl-6-oxo-5,6,6a,7,9,10-hexahydro-[1,4]oxazino[3,4-h]pteridin-2-yl)phenyl)-3-methylurea]
pIC50: > 7.50

CNC(=O)Nc1ccc(-c2ncc3c(n2)N2C[C@@H](C)OC[C@]2(C)C(=O)N3CC2CC2)cc1 [Example 19, 1-(4-((6aR,9R)-5-(cyclopropylmethyl)-6a,9-dimethyl-6-oxo-5,6,6a,7,9,10-hexahydro-[1,4]oxazino[3,4-h]pteridin-2-yl)phenyl)-3-methylurea]
pIC50: 6.00 to 7.50

CNC(=O)Nc1ccc(-c2ncc3c(n2)N2CCOCC2(C)C(=O)N3C(C)(C)C(=O)O)cc1 (centres unmarked) [Example 20, 2-methyl-2-(6a-methyl-2-(4-(3-methylureido)phenyl)-6-oxo-6a,7,9,10-tetrahydro-[1,4]oxazino[3,4-h]pteridin-5(6H)-yl)propanoic acid TFA salt]
pIC50: < 6.00

CNC(=O)Nc1ccc(-c2ncc3c(n2)N2CCOCC2(C)C(=O)N3C[C@H](O)CO)cc1 (stereo partly drawn) [Example 22, 1-(4-(5-((S)-2,3-dihydroxypropyl)-6a-methyl-6-oxo-5,6,6a,7,9,10-hexahydro-[1,4]oxazino[3,4-h]pteridin-2-yl)phenyl)-3-methylurea]
pIC50: 6.00 to 7.50

CNC(=O)Nc1ccc(-c2ncc3c(n2)N2CCOC[C@@]2(C)C(=O)N3C[C@H](O)CO)cc1 [Example 23]
pIC50: 6.00 to 7.50

CNC(=O)Nc1ccc(-c2ncc3c(n2)N2CCOC[C@]2(C)C(=O)N3C[C@H](O)CO)cc1 [Example 24]
pIC50: < 6.00

CNC(=O)Nc1ccc(-c2ncc3c(n2)N2CCOC[C@@]2(C)C(=O)N3C2CCOCC2)cc1 [Example 26, (S)-1-methyl-3-(4-(6a-methyl-6-oxo-5-(tetrahydro-2H-pyran-4-yl)-5,6,6a,7,9,10-hexahydro-[1,4]oxazino[3,4-h]pteridin-2-yl)phenyl)urea]
pIC50: > 7.50

CNC(=O)Nc1ccc(-c2ncc3c(n2)N2CCOCC2(C)C(=O)N3CC(C)(C)C)cc1 (centres unmarked) [Example 28, 1-methyl-3-(4-(6a-methyl-5-neopentyl-6-oxo-5,6,6a,7,9,10-hexahydro-[1,4]oxazino[3,4-h]pteridin-2-yl)phenyl)urea]
pIC50: > 7.50

CC12COCCN1c1nc(-c3ccc(NC(=O)NC4CC4)cc3)ncc1N(C1CCOC1)C2=O (centres unmarked) [Example 30, 1-cyclopropyl-3-(4-(6a-methyl-6-oxo-5-(tetrahydrofuran-3-yl)-5,6,6a,7,9,10-hexahydro-[1,4]oxazino[3,4-h]pteridin-2-yl)phenyl)urea]
pIC50: > 7.50

CNC(=O)Nc1ccc(-c2ncc3c(n2)N2CCOCC2(C)C(=O)N3CCCOC)cc1 (centres unmarked) [Example 35, 1-(4-[5-(3-methoxypropyl)-6a-methyl-6-oxo-5,6,6a,7,9,10-hexahydro[1,4]oxazino[3,4-h]pteridin-2-yl]phenyl)-3-methylurea]
pIC50: > 7.50

CNC(=O)Nc1ccc(-c2ncc3c(n2)N2CCOC[C@@]2(C)C(=O)N3CCCOC)cc1 [Example 36, (S)-1-(4-[5-(3-methoxypropyl)-6a-methyl-6-oxo-5,6,6a,7,9,10-hexahydro[1,4]oxazino[3,4-h]pteridin-2-yl]phenyl)-3-methylurea]
pIC50: > 7.50

COCCCN1C(=O)[C@]2(C)COCCN2c2nc(-c3ccc(NC(=O)NC4CC4)cc3)ncc21 [Example 41, (S)-1-cyclopropyl-3-(4-(5-(3-methoxypropyl)-6a-methyl-6-oxo-5,6,6a,7,9,10-hexahydro-[1,4]oxazino[3,4-h]pteridin-2-yl)phenyl)urea]
pIC50: > 7.50

CC12COCCN1c1nc(-c3ccc(NC(=O)NC4CC4)cc3)ncc1N(C1CCS(=O)(=O)CC1)C2=O (centres unmarked) [Example 45, 1-cyclopropyl-3-(4-[5-(1,1-dioxidotetrahydro-2H-thiopyran-4-yl)-6a-methyl-6-oxo-5,6,6a,7,9,10-hexahydro[1,4]oxazino[3,4-h]pteridin-2-yl]phenyl)urea]
pIC50: 6.00 to 7.50

CC12COCCN1c1nc(-c3ccc(NC(=O)NC4CC4)cc3)ncc1N(CCCS(C)(=O)=O)C2=O (centres unmarked) [Example 46, 1-cyclopropyl-3-(4-(6a-methyl-5-(3-(methylsulfonyl)propyl)-6-oxo-5,6,6a,7,9,10-hexahydro-[1,4]oxazino[3,4-h]pteridin-2-yl)phenyl)urea]
pIC50: > 7.50

CC(F)(F)CN1C(=O)C2(C)COCCN2c2nc(-c3ccc(NC(=O)NC4CC4)cc3)ncc21 (centres unmarked) [Example 47, 1-cyclopropyl-3-(4-(5-(2,2-difluoropropyl)-6a-methyl-6-oxo-5,6,6a,7,9,10-hexahydro-[1,4]oxazino[3,4-h]pteridin-2-yl)phenyl)urea]
pIC50: > 7.50

CC(F)(F)CN1C(=O)[C@]2(C)COCCN2c2nc(-c3ccc(NC(=O)NC4CC4)cc3)ncc21 [Example 49, (S)-1-cyclopropyl-3-(4-(5-(2,2-difluoropropyl)-6a-methyl-6-oxo-5,6,6a,7,9,10-hexahydro-[1,4]oxazino[3,4-h]pteridin-2-yl)phenyl)urea]
pIC50: > 7.50

C[C@]12COCCN1c1nc(-c3ccc(NC(=O)NC4CC4)cc3)ncc1N(CC(F)(F)F)C2=O [Example 53, (R)-1-cyclopropyl-3-(4-(6a-methyl-6-oxo-5-(2,2,2-trifluoroethyl)-5,6,6a,7,9,10-hexahydro-[1,4]oxazino[3,4-h]pteridin-2-yl)phenyl)urea]
pIC50: > 7.50
